# According to patent publication US20200339625A1, “NOVEL RADIOMETAL-BINDING COMPOUNDS FOR DIAGNOSIS OR TREATMENT OF PROSTATE SPECIFIC MEMBRANE ANTIGEN-EXPRESSING CANCER” (PROVINCIAL HEALTH SERVICES AUTHORITY, priority 2017, published 2020):
# How the values were obtained:
# [1] = tested on: PSMA-expressing PC-3 PIP tumors; details: 5 MBq; cited from earlier work
# [2] = tested on: mice bearing LNCaP tumor xenografts; assay: SPECT/CT imaging of 177Lu-labeled compounds; type: in vivo; details: for size of LNCaP tumor xenografts over time: injection of about 37 MBq, SPECT/CT
# Method: SPECT/CT imaging and biodistribution were performed using NOD-scid IL2Rgammanu^null (NSG) male mice, and the endoradiotherapy study was conducted using NOD.Cg-Rag1^tm1MomII2rg^tm1WjI/SzJ (NRG) male mice. The mice were maintained and the experiments were conducted in according to the guidelines established by the Canadian Council on Animal Care and approved by Animal Ethics Committee of the University of British Columbia. Mice were anesthetized by inhalation with 2% isoflurane in oxygen, and implanted subcutaneously with 1×10^7 LNCaP cells posterior to the left shoulder. Mice were used for studies when the tumor reached 5-8 mm in diameter 5-6 weeks after inoculation.
# SPECT/CT imaging experiments were conducted using the MILabs (Utrecht, the Netherlands) U-SPECT-II/CT scanner. Each tumor-bearing mouse was injected with ≠37 MBq of ^177Lu-labeled PSMA-617 or HTK01169 through the tail vein under anesthesia (2% isoflurane in oxygen). The mice were allowed to recover and roam freely in their cage and imaged at 4, 24, 72 and 120 hours after injection. At each time point, the mice were sedated again and positioned in the scanner. A 5-min CT scan was conducted first for anatomical reference with a voltage setting at 60 kV and current at 615 μA followed by a 60-min static emission scan acquired in list mode using an ultra-high resolution multi-pinhole rat-mouse (1 mm pinhole size) collimator. Data were reconstructed using the U-SPECT II software with a 20% window width on three energy windows. The photopeak window was centered at 208 keV, with lower scatter and upper scatter windows centered at 170 and 255 keV, respectively. The images were reconstructed using the ordered subset expectation maximization algorithm (3 iterations, 16 subsets), and a 0.5 mm post-processing Gaussian filter. Images were decay corrected to injection time in PMOD (PMOD Technologies, Switzerland) then converted to DICOM for qualitative visualization in the Inveon Research Workplace software (Siemens Medical Solutions USA, Inc.).
# [3] = tested on: human serum; assay: Plasma protein binding assay; type: in vitro ADME; details: for free radioligand: human serum; for filter-bound radioactivity: n=3
# Method: 1.16 Plasma Protein Binding Assay
# Plasma protein binding assays were performed according to literature methods.^19 Briefly, 37 kBq of ^177Lu-PSMA-617 or ^177Lu-HTK01169 in 50 μL PBS was added into 200 μL human serum and the mixture was incubated at room temperature for […]. The mixture was then loaded onto a membrane filter (Nanosep®, 30 K, Pall Corporation, USA) and centrifuged for 45 min (30,130×g). Saline (50 μL) was added and centrifugation was continued for another 15 min. The top part with the membrane filter and the bottom part with the solution were counted on a gamma counter. For control, saline was used in place of human serum.
# [4] = tested on: metastatic prostate cancer; details: cited from earlier work
# [5] = Radiation dosimetry calculation (OLINDA), 25-g mouse
# Method: 1.18 Radiation Dosimetry Calculation
# (§1) Internal dosimetry estimates were calculated using the organ level internal dose assessment (OLINDA) software v.2.0.^37 These estimates were performed for the mouse using the 25 g MOBY phantom,^38 for humans using the NURBS model for the adult male,^39 and for the tumors using the previously reported unit density sphere model.^40 All the phantoms and the sphere model are available in OLINDA and require the input of the total number of decays normalized by injected activity in units of MBq×h/MBq for each of the source organ/tumor.
# The biodistribution data (available in the Tables 1 and 2, below) was used to determine the kinetics input values required by OLINDA. First, each of the values was decayed to its corresponding time point (the values on the table are shown at injection time). Then the different time-points of the uptake data (% ID/g) for each organ were fitted to both mono-exponential
# functions using in-house software developed in Python. The best fit was selected based on maximizing the coefficient of determination (R2) of the fit and minimizing the residuals. The areas under the curves were analytically calculated based on the parameters obtained from the best fit of each organ and this provided the kinetic input values required by OLINDA.
# In the mouse case, the adrenals, blood, fat, muscle, and seminal vesicles are not modeled in the phantom. These organs were grouped together and included in what OLINDA calls the remainder of the body.
# [6] = Radiation dosimetry calculation (OLINDA), extrapolated to humans (male); parameters: species or system human
# Method: as §1
# Extrapolation of the mice biodistribution data to humans was performed using the method proposed by Kirschner et al.^41 and shown in the following equation: […]
# Where morgan is the mass of the organ and M represents the total body mass. The subscripts indicate whether the values correspond to human or mouse. Masses for the organs and total body weight were taken from the simulated masses of the phantoms in OLINDA. […] The % ID/g of the blood was assumed to be the one for the heart contents of the phantom. This value was also used to calculate the bone marrow uptake based on the method described by Wessels et al.^42 in which we assumed a hematocrit fraction of 0.40 based on the patient values shown on that study. At the end, red marrow values used the blood measurements scaled by a factor of 0.32. In the human case, the fat, muscle, and seminal vesicles that are present in the biodistribution data are not modelled in the phantom so the numbers of decays present in these regions were included in the remainder of the body. The data was again fitted as for the mouse case and the values for the total number of decays in units of MBq×h/MBq were inputted in OLINDA.
# [7] = incubated with saline (control)
# [8] = source organ Large intestine contents
# [9] = source organ Remainder of the body
# [10] = source organ Urinary bladder contents
# [11] = source organ Adrenals, human male
# [12] = source organ Cortical bone, human male
# [13] = source organ Heart contents, human male
# [14] = source organ Heart wall, human male
# [15] = source organ Kidneys, human male
# [16] = source organ Left colon, human male
# [17] = source organ Pancreas, human male
# [18] = source organ Rectum, human male
# [19] = source organ Red marrow, human male
# [20] = source organ Remainder of the body, human male
# [21] = source organ Right colon, human
# [22] = source organ Small Intestine, human
# [23] = source organ Spleen, human male
# [24] = source organ Stomach contents, human male
# [25] = source organ Testes, human male
# [26] = source organ Urinary bladder contents, human male
structure (smiles),measurement,setting,value
"O=C([O-])CN1CCN(CC(=O)[O-])CCN(CC(=O)NCC2CCC(C(=O)N[C@@H](Cc3ccc4ccccc4c3)C(=O)NCCCC[C@H](NC(=O)N[C@@H](CCC(=O)O)C(=O)O)C(=O)O)CC2)CCN(CC(=O)[O-])CC1.[177Lu+3] (stereo partly drawn) [^177Lu-PSMA-617, reference compound]",Median survival,[1],32 days
same,excretion pathway,[2]; SPECT/CT images,excreted mainly via the renal pathway
same,size of LNCaP tumor xenografts over time,[2],quick reduction in size
same,free radioligand,[3],~17%
same,filter-bound radioactivity,[3]; incubated with human serum,82.7±0.32%
same,filter-bound radioactivity,[3]; [7],5.21±1.42%
same,complete response rate,"[4]; human, in vivo",< 7%
same,patients with progressive disease after treatment,"[4]; human, in vivo",up to 33%
same,side effects,"[4]; human, in vivo",without severe side effects
same,patients having >50% reduction in PSA levels,[4]; metastatic prostate cancer,32-60%
same,objective response,"[4]; phase 2 Australian study, patients with measurable nodal or visceral disease",82%
same,Kinetics value,[5]; source organ Brain,6.96E−03 MBq-h/MBq
same,Kinetics value,[5]; source organ Cortical bone,9.96E−02 MBq-h/MBq
same,Kinetics value,[5]; source organ Heart contents,4.21E−03 MBq-h/MBq
same,Kinetics value,[5]; source organ Kidneys,1.13E+00 MBq-h/MBq
same,Kinetics value,[5]; [8],1.74E−02 MBq-h/MBq
same,Kinetics value,[5]; source organ Liver,6.54E−02 MBq-h/MBq
same,Kinetics value,[5]; source organ Lungs,5.10E−03 MBq-h/MBq
same,Kinetics value,[5]; source organ Pancreas,5.44E−03 MBq-h/MBq
same,Kinetics value,[5]; [9],6.82E−01 MBq-h/MBq
same,Kinetics value,[5]; source organ Small intestine,5.20E−02 MBq-h/MBq
same,Kinetics value,[5]; source organ Spleen,1.50E−02 MBq-h/MBq
same,Kinetics value,[5]; source organ Stomach contents,5.42E−03 MBq-h/MBq
same,Kinetics value,[5]; source organ Testes,4.96E−03 MBq-h/MBq
same,Kinetics value,[5]; [10],1.10E+00 MBq-h/MBq
same,Kinetics value,[6]; [11],1.00E−03 MBq-h/MBq
same,Kinetics value,"[6]; source organ Brain, human male",6.71E−03 MBq-h/MBq
same,Kinetics value,[6]; [12],5.30E−03 MBq-h/MBq
same,Kinetics value,[6]; [13],4.29E−03 MBq-h/MBq
same,Kinetics value,[6]; [14],2.02E−03 MBq-h/MBq
same,Kinetics value,[6]; [15],3.98E−01 MBq-h/MBq
same,Kinetics value,[6]; [16],1.53E−03 MBq-h/MBq
same,Kinetics value,"[6]; source organ Liver, human male",2.32E−02 MBq-h/MBq
same,Kinetics value,"[6]; source organ Lungs, human male",2.41E−02 MBq-h/MBq
same,Kinetics value,[6]; [17],8.55E−04 MBq-h/MBq
same,Kinetics value,[6]; [18],7.16E−04 MBq-h/MBq
same,Kinetics value,[6]; [19],3.15E−03 MBq-h/MBq
same,Kinetics value,[6]; [20],5.39E−01 MBq-h/MBq
same,Kinetics value,[6]; [21],1.53E−03 MBq-h/MBq
same,Kinetics value,[6]; [22],6.65E−03 MBq-h/MBq
same,Kinetics value,[6]; [23],6.93E−03 MBq-h/MBq
same,Kinetics value,[6]; [24],5.06E−03 MBq-h/MBq
same,Kinetics value,[6]; [25],3.72E−04 MBq-h/MBq
same,Kinetics value,[6]; [26],3.15E−01 MBq-h/MBq
O=C([O-])CN1CCN(CC(=O)[O-])CCN(CC(=O)NCCCC[C@H](NC(=O)[C@H](CCC(=O)O)NC(=O)CCCc2ccc(I)cc2)C(=O)NC[C@H]2CC[C@H](C(=O)N[C@@H](Cc3ccc4ccccc4c3)C(=O)NCCCC[C@H](NC(=O)N[C@@H](CCC(=O)O)C(=O)O)C(=O)O)CC2)CCN(CC(=O)[O-])CC1.[177Lu+3] [^177Lu-HTK01169],excretion pathway,[2]; SPECT/CT images,excreted mainly via the renal pathway
same,tumor uptake (qualitative),"[2]; SPECT/CT images, compared with 177Lu-PSMA-617",Higher and sustained tumor uptake
same,renal retention (qualitative),"[2]; SPECT/CT images, early time points (4 and 24 h), compared with 177Lu-PSMA-617",higher renal retention
same,size of LNCaP tumor xenografts over time,[2],quick reduction in size
same,free radioligand,[3],< 1%
same,filter-bound radioactivity,[3]; incubated with human serum,99.2±0.02%
same,filter-bound radioactivity,[3]; [7],25.8±3.42%
same,Kinetics value,[5]; source organ Brain,3.21E−02 MBq-h/MBq
same,Kinetics value,[5]; source organ Cortical bone,5.48E−01 MBq-h/MBq
same,Kinetics value,[5]; source organ Heart contents,1.66E−01 MBq-h/MBq
same,Kinetics value,[5]; source organ Kidneys,1.94E+01 MBq-h/MBq
same,Kinetics value,[5]; [8],2.25E−01 MBq-h/MBq
same,Kinetics value,[5]; source organ Liver,1.41E+00 MBq-h/MBq
same,Kinetics value,[5]; source organ Lungs,1.28E−01 MBq-h/MBq
same,Kinetics value,[5]; source organ Pancreas,1.30E−01 MBq-h/MBq
same,Kinetics value,[5]; [9],1.73E+01 MBq-h/MBq
same,Kinetics value,[5]; source organ Small intestine,6.73E−01 MBq-h/MBq
same,Kinetics value,[5]; source organ Spleen,4.38E−01 MBq-h/MBq
same,Kinetics value,[5]; source organ Stomach contents,1.54E−02 MBq-h/MBq
same,Kinetics value,[5]; source organ Testes,1.66E−01 MBq-h/MBq
same,Kinetics value,[5]; [10],6.02E−01 MBq-h/MBq
same,Kinetics value,[6]; [11],1.55E−02 MBq-h/MBq
same,Kinetics value,"[6]; source organ Brain, human male",3.42E−02 MBq-h/MBq
same,Kinetics value,[6]; [12],1.03E−02 MBq-h/MBq
same,Kinetics value,[6]; [13],3.16E−01 MBq-h/MBq
same,Kinetics value,[6]; [14],7.97E−02 MBq-h/MBq
same,Kinetics value,[6]; [15],6.81E+00 MBq-h/MBq
same,Kinetics value,[6]; [16],1.99E−02 MBq-h/MBq
same,Kinetics value,"[6]; source organ Liver, human male",4.98E−01 MBq-h/MBq
same,Kinetics value,"[6]; source organ Lungs, human male",6.03E−01 MBq-h/MBq
same,Kinetics value,[6]; [17],2.05E−02 MBq-h/MBq
same,Kinetics value,[6]; [18],9.27E−03 MBq-h/MBq
same,Kinetics value,[6]; [19],2.46E−01 MBq-h/MBq
same,Kinetics value,[6]; [20],1.21E+01 MBq-h/MBq
same,Kinetics value,[6]; [21],1.99E−02 MBq-h/MBq
same,Kinetics value,[6]; [22],8.61E−02 MBq-h/MBq
same,Kinetics value,[6]; [23],2.03E−01 MBq-h/MBq
same,Kinetics value,[6]; [24],1.44E−02 MBq-h/MBq
same,Kinetics value,[6]; [25],1.25E−02 MBq-h/MBq
same,Kinetics value,[6]; [26],1.72E−01 MBq-h/MBq
